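48-hour exposure; five concentrations; linearly interpolated endpoints. GI50 is the concentration that inhibits growth by half.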 Active and inactive are the calls of the source. Rule as the data show it: active = GI50 up to about 1.1 µM and inactive = higher.
Experiments:
Assay in all cases: inhibition of tumour cell growth, NCI panel, 48 h
NCI-H522 = tested on: NCI-H522
LOX IMVI = tested on: LOX IMVI
COLO 205 = tested on: COLO 205
U-251 = tested on: U-251
HCC 2998 = tested on: HCC 2998
CCRF-CEM = tested on: CCRF-CEM
HCT-15 = tested on: HCT-15
M14 = tested on: M14
HT-29 = tested on: HT-29
SR = tested on: SR
MDA-MB-231 = tested on: MDA-MB-231
SK-MEL-2 = tested on: SK-MEL-2
SN12C = tested on: SN12C
NCI-H226 = tested on: NCI-H226
UACC-62 = tested on: UACC-62
A549 = tested on: A549
RXF 393 = tested on: RXF 393
A498 = tested on: A498
OVCAR-4 = tested on: OVCAR-4
SF-295 = tested on: SF-295

| SMILES | GI50 (NCI-H522) | GI50 (LOX IMVI) | GI50 (COLO 205) | GI50 (U-251) | GI50 (HCC 2998) | GI50 (CCRF-CEM) | GI50 (HCT-15) [µM] | GI50 (M14) | GI50 (HT-29) | GI50 (SR) | GI50 (MDA-MB-231) | GI50 (SK-MEL-2) | GI50 (SN12C) | GI50 (NCI-H226) | GI50 (UACC-62) | GI50 (A549) | GI50 (RXF 393) | GI50 (A498) | GI50 (OVCAR-4) | GI50 (SF-295) |
| --- | --- | --- | --- | --- | --- | --- | --- | --- | --- | --- | --- | --- | --- | --- | --- | --- | --- | --- | --- | --- |
| CCOC(=O)/C=C/c1cccc(F)c1 | > 100 µM (inactive) | > 100 µM (inactive) | > 100 µM (inactive) | > 100 µM (inactive) | > 100 µM (inactive) | > 100 µM (inactive) | > 100 | > 100 µM (inactive) | > 100 µM (inactive) | > 100 µM (inactive) | > 100 µM (inactive) | > 100 µM (inactive) | > 100 µM (inactive) | > 100 µM (inactive) | > 100 µM (inactive) | > 100 µM (inactive) | > 100 µM (inactive) | > 100 µM (inactive) | > 100 µM (inactive) |  |
| O=C1/C(=C/c2ccccc2O)N=C(c2ccccc2)N1c1nc2ccccc2s1 | 4.06 µM (inactive) | 15.5 µM (inactive) |  | 10.1 µM (inactive) | 13.7 µM (inactive) | 25.5 µM (inactive) | 6.11 | 17.1 µM (inactive) | 20.9 µM (inactive) | 2.24 µM (inactive) | 18.3 µM (inactive) | 9.18 µM (inactive) |  | 22.7 µM (inactive) |  |  | 34.3 µM (inactive) | 20.4 µM (inactive) | 32.1 µM (inactive) | 14.7 µM (inactive) |
| O=c1c2ccccc2n2c(-c3ccc(O)cc3)nnc2n1-c1ccccc1 | 18.2 µM (inactive) | 29.4 µM (inactive) | 77.6 µM (inactive) | 17.2 µM (inactive) | 49.1 µM (inactive) | 14.8 µM (inactive) | 23.1 | 18.2 µM (inactive) | 22.1 µM (inactive) | 21.3 µM (inactive) | 17.1 µM (inactive) | 20.7 µM (inactive) | 17.1 µM (inactive) | 27 µM (inactive) | 19.6 µM (inactive) | 20.5 µM (inactive) | 20.5 µM (inactive) | 13 µM (inactive) | 20 µM (inactive) | 15.6 µM (inactive) |
| CN(C)c1ccc(/N=C2/NC(=N\c3ccccc3)/C(=N/c3ccccc3)S2)cc1 | 5.64 µM (inactive) | 37.6 µM (inactive) | > 100 µM (inactive) |  | > 100 µM (inactive) | 97.5 µM (inactive) | > 100 | > 100 µM (inactive) | > 100 µM (inactive) | > 100 µM (inactive) | > 100 µM (inactive) | 98.2 µM (inactive) | > 100 µM (inactive) | > 100 µM (inactive) | 51.2 µM (inactive) | > 100 µM (inactive) | 43.1 µM (inactive) | 87.3 µM (inactive) | > 100 µM (inactive) | > 100 µM (inactive) |
